Laboratory results: US20090326007A1, “Compounds and methods for modulating sir2 protein activity” (priority 2007, published 2009)
Entries after “also recorded” stand apart in the source; their conditions may differ. Read-outs that look alike come from different tables or passages of the source.

Tests used:
[1] = target: Hst2 (1-294) (Saccharomyces cerevisiae, UniProt P53686); experiment: High throughput screen for Hst2 effectors in the presence of nicotinamide (fluorimetric); settings: Table 3, activators, nicotinamide present
Description: High Throughput Screening (HTS). A high throughput screening protocol based on the SIRT1 Fluorimetric Activity Assay/Drug Discovery Kit was developed (BIOMOL International, Inc., Plymouth Meeting, Pa.). […] One hundred nanoliters of either a DMSO control or a compound from the small molecule screening library was added to each well by pinning. […] After 45 minutes, each plate was read on a fluorescence plate reader at an excitation wavelength of 360 nm and an emission wavelength of 460 nm. […] The fluorescence signal from each well was normalized to the DMSO controls on each 384-well plate and compared to a DMSO control population based on the following equation:
where χ is the fluorescence signal of the well, μ is the mean of the control (DMSO) population and σ is the standard deviation of the control population. […]

[2] = target: T1, human SIRT3 (Homo sapiens, UniProt Q9NTG7); experiment: Inhibition assay against human SIRT3 (fluorigenic)
T1 sequence (Q9NTG7 1-399): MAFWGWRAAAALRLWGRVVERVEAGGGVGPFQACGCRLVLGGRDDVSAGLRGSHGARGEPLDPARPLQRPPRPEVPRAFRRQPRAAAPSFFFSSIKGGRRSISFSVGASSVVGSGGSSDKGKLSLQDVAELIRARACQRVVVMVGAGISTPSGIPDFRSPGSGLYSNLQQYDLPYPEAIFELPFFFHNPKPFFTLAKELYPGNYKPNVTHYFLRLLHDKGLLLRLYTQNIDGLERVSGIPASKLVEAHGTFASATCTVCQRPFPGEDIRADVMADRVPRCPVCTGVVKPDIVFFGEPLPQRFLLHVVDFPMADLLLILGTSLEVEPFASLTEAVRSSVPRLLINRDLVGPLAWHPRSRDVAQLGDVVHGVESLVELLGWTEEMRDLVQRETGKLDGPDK
Description: (§3) Human recombinant SIRT3 was purchased from Enzo Life Sciences.
(§4) Inhibition Assay Against Human SIRT2 and SIRT3. […] Two independent measurements were performed for each compound and the average and standard deviation are reported.

[3] = target: T2, full-length human SIRT1 (Homo sapiens, UniProt Q96EB6); experiment: IC50 determination, fluorigenic deacetylase assay, FL SIRT1; settings: read-out: SIRT1 IC50; Table 5; 240 μM NAD+, 200 μM substrate, 1 μM FL SIRT1, 15 min
T2 sequence (Q96EB6 1-747): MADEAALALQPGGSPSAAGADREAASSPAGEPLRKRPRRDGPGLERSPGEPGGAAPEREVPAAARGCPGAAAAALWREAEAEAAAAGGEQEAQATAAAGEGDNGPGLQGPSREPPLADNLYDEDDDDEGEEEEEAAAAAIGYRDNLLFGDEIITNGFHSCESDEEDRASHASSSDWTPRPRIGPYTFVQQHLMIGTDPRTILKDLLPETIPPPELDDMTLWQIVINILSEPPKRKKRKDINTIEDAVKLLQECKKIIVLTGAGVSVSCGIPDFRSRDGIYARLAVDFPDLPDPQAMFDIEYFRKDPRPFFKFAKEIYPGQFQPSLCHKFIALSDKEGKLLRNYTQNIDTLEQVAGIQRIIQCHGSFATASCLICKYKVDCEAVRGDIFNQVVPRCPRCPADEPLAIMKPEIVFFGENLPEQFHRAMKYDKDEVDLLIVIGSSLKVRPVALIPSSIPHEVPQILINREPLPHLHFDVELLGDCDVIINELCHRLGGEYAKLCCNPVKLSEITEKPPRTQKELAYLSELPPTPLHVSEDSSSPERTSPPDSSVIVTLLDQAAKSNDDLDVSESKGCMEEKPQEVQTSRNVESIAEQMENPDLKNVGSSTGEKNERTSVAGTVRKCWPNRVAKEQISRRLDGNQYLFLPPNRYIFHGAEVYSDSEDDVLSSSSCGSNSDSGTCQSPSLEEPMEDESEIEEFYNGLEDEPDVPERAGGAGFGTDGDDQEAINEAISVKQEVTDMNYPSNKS
Description: Cells were harvested and lysed by sonication in buffer containing 50 mM Tris, pH 7.5, 200 mM NaCl, 5 mM imidizole, 10 mM β-mercaptoethanol (BME) and 0.1 mg/mL PMSF. Soluble FL SIRT1 was purified by Ni-NTA (Qiagen, Valencia, Calif.) in a buffer containing 50 mM Tris, pH 7.5, 300 mM NaCl, 10 mM BME, 5% glycerol and 30-600 mM imidizole followed by SUPERDEX-200 gel filtration in buffer containing 50 mM Tris, pH 7.5, 150 mM NaCl, and 10 mM BME. FL SIRT1 eluted between the 670 kDa and 158 kDa globular protein standards. Since SIRT1 is known to aggregate after several days at 4° C., the protein was aliquoted and frozen at −80° C. for use in fluorigenic assays.
(§5) IC50 Determination. […] The dose-response curves were then fit to one-site competition or sigmoidal-dose response curves as appropriate in [sequence] PRISM (GraphPad Software, La Jolla, Calif.) and the IC50 was determined. Three independent IC50 measurements were performed for each compound and the average and standard deviation are reported.

[4] = target: T3, Hst2 (Saccharomyces cerevisiae, UniProt P53686)
Description: as §5
(§6) The resulting deacetylase activity for the three experiments was averaged and reported as a percentage relative to control wells containing no inhibitor.

[5] = target: T3, Hst2; experiment: Competition assay (inhibition mode versus NAD+ and acetyl-lysine substrate); type: biochemical
Description: Competition Assay. […] The fluorigenic assay described above was used with a fixed enzyme concentration of 1 μM. When competition with NAD^+ was being tested, the FLUOR DE LYS-SIRT1 deacetylase substrate was held at a constant concentration of 100 μM and the NAD^+ was titrated from ⅓-5× KmNAD+ (5-80 μM). […] The inhibitors were titrated from ˜½-several times their estimated Ki as indicated. The reaction time was 15 minutes, and each condition was tested in duplicate. The Km, kcat and kcat/Km values were determined by direct fit of the data in SIGMAPLOT (Systat Software, Point Richmond, Calif.) to the Michealis-Menten equation. The Ki and Kis (the slope and intercept inhibition constants, respectively) and the competition type were also determined by a direct fit in SIGMAPLOT to both partial and full competitive, noncompetitive, uncompetitive and mixed competition models. Best-fit models were determined by several statistical methods including R^2, AICs and Sy.x as well as empirical evaluation of α and β values.
To determine the mechanism of inhibition of the compounds identified by HTS and to gain insight as to where these compounds may bind to the enzyme, inhibition modes were determined by varying each of the substrates with the other maintained at a fixed, saturating concentration (Table 11).

[6] = target: T3, Hst2; experiment: SAR analysis, fluorigenic assay at 50 and 500 μM; type: biochemical; settings: Table 7, 500 μM compound, relative to control; read-out: % Activity 500 μM
Description: Structure Activity Relationship (SAR) Analysis.

[7] = target: T4, human SIRT2 (Homo sapiens, UniProt Q8IXJ6); experiment: Inhibition assay against human SIRT2 (fluorigenic); settings: for remaining activity at 100 µM: read-out: percent of residual enzyme activity, SIRT2
T4 sequence (Q8IXJ6 1-352 isoform Q8IXJ6-2): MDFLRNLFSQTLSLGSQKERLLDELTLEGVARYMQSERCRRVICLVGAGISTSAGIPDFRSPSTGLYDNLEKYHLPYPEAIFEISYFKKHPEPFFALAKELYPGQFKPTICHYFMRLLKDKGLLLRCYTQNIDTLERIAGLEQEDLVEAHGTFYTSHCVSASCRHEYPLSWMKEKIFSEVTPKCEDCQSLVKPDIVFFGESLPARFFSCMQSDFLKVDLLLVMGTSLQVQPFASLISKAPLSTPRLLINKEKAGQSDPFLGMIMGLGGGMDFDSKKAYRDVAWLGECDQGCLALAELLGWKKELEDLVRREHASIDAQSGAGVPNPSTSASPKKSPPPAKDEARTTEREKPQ
Description: as §3, §4

[8] = target: T5, wild-type yHst2 (Saccharomyces cerevisiae, UniProt P53686); experiment: Kinetic assay, deacetylase fluorescent activity assay kit, wild-type enzyme; type: biochemical; settings: read-out: Km for NAD+
T5 construct: The 64-residue C-terminal deletion construct of yHst2 (residues 1-294) and point mutants were purified; His6 (N); made in house
Description: (§1) Kinetic Assays. […] Data taken in triplicate were fitted to the equation l/v=(Km/Vmax)(1/[S])+1/Vmax, using a root mean least squares approach in the form of a double reciprocal Lineweaver-Burk plot where the x-intercept is equal to −l/Km. […] The slopes of the Dixon Plot were replotted versus 1/[NAD^+], and the slope of the corresponding line was set equal to Km/(Vmax*Ki), in order to calculate Ki.

[9] = target: T6, yHst2 D118N mutant (Saccharomyces cerevisiae, UniProt P53686, D118N); experiment: Kinetic assay, deacetylase fluorescent activity assay kit, D118N mutant; type: biochemical
T6 construct: Point mutations in yHst2 (1-294) were generated from the pRSET-A plasmid; His6 (N); made in house
Description: (§2) Protein Preparation, Crystallization and Structure Determination.
as §1

[10] = target: T7, yHst2 I117F mutant (Saccharomyces cerevisiae, UniProt P53686, I117F); experiment: Kinetic assay, deacetylase fluorescent activity assay kit, I117F mutant; type: biochemical
T7 construct: Point mutations in yHst2 (1-294) were generated from the pRSET-A plasmid; His6 (N); made in house
Description: as §2, §1

[11] = target: T8, yHst2 I117V mutant (Saccharomyces cerevisiae, UniProt P53686, I117V); experiment: Kinetic assay, deacetylase fluorescent activity assay kit, I117V mutant; type: biochemical
T8 construct: Point mutations in yHst2 (1-294) were generated from the pRSET-A plasmid; His6 (N); made in house
Description: as §2, §1

[12] = target: T3, Hst2; experiment: Reversibility assay; type: biochemical; settings: preincubation at 10x IC50, 100-fold dilution
Description: Reversibility Assay. Each of the inhibitor scaffolds identified in the HTS was tested to determine whether they were reversible, slowly reversible or irreversible inhibitors of Hst2. The reversibility of each compound was identified using the fluorigenic assay described herein.
To aid in the determination of the mechanism of inhibition for each newly identified inhibitor and to assay reversibly of inhibitor binding to the enzyme, it was tested whether or not inhibitor binding to the Sir2 enzyme was rapidly reversible, slowly reversible or irreversible. […] Then, the enzyme was diluted 100-fold into reaction wells with both substrates, and the amount of product formation over time was monitored (FIG. 2).

[13] = target: T3, Hst2; experiment: IC50 determination, fluorigenic deacetylase assay, Hst2
Description: as §5, §6

[14] = system: trypsin; experiment: Control for inhibition of the trypsin assay developer; type: biochemical
Description: These compounds were not pursued further.

[15] = read-out: Hst2 IC50, Table 5, 160 μM NAD+, 100 μM substrate, 1 μM Hst2, 15 min

T3 sequence (P53686 1-294): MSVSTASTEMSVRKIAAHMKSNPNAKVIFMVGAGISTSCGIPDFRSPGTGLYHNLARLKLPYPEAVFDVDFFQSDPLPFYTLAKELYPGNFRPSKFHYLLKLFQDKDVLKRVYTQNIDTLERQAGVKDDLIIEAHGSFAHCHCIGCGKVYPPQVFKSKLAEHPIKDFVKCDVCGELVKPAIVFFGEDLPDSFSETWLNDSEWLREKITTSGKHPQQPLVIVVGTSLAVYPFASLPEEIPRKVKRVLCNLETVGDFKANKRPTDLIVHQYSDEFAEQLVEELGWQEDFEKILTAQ
T7 sequence (P53686 1-294 I117F): as the sequence (P53686 1-294) above, with I117F counted along it
T8 sequence (P53686 1-294 I117V): as the sequence (P53686 1-294) above, with I117V counted along it
T6 sequence (P53686 1-294 D118N): as the sequence (P53686 1-294) above, with D118N counted along it
Sequence of Hst2 (1-294) (P53686 1-294): as the sequence (P53686 1-294) above
T5 sequence (P53686 1-294): as above

In the case of CC1(C)CC(=O)C2=C(C1)NC1=C(C(=O)CC(C)(C)C1)C2c1cccc(F)c1, the “Fold Activation” value [1] is reported as 2.2 Fold.

For COCC#CC1c2cc(O)c(OC)cc2CCN1C (stereo not shown) [Compound 15a, 6-Methoxy-1-(3-methoxy-prop-1-ynyl)-2-methyl-1,2,3,4-tetrahydro-isoquinolin-7-ol], the “inhibitory activity against human SIRT3 (in words)” value ([2]; 50 or 100 μM compound) was “only weak inhibitory activity”, the remaining activity at 100 µM ([2]; read-out: percent of residual enzyme activity, SIRT3) was 96.4 ± 0.5% and the IC50 [3] was 570 ± 200 µM. The “IC50 lower than that of compound 15b” value [4] was “about 2 fold”, the kcat ([5]; substrate NAD+ varied) was 0.0137 ± 0.00233 s⁻¹ and the “Inhibition Mechanism” value ([5]; substrate NAD+ varied, acetyl-lysine substrate 100 μM) was “fully mixed”. The kcat ([5]; substrate acetyl-lysine varied) was 0.0167 ± 0.0033 s⁻¹, the “Inhibition Mechanism” value ([5]; substrate acetyl-lysine varied, NAD+ 160 μM) was “fully non-competitive; also recorded: NC (full)” and the “α (mixed inhibition model)” value ([5]; with respect to NAD+) was 2.6. The activity at 500 µM [6] was 5%, the “inhibitory activity against human SIRT2 (in words)” value ([7]; 50 or 100 μM compound) was “only weak inhibitory activity” and the remaining activity at 100 µM [7] was 92.1 ± 1.5%.

In the case of NC(=O)c1ccc[n+]([C@@H]2O[C@H](COP(=O)([O-])OP(=O)(O)OC[C@H]3O[C@@H](n4cnc5c(N)ncnc54)[C@H](O)[C@@H]3O)[C@@H](O)[C@H]2O)c1 [NAD^+], the Km [8] is reported as 16.1 µM, the “increase of Km for NAD+ over wild-type” value ([9]; D118N mutant versus wild-type) is reported as “more than 28 fold” and the Km ([9]; D118N mutant, read-out: apparent Km for NAD+) is reported as 454 µM. The “increased Km for NAD+ compared to wild-type enzyme” value ([10]; I117F mutant versus wild-type) was “less than 2 fold”, the Km ([10]; I117F mutant, read-out: Km for NAD+) was 25.8 µM and the Km ([11]; I117V mutant, read-out: Km for NAD+) was 25.5 µM.

In the case of NC(=O)c1cccnc1 [Nicotinamide (1), Nicotinamide, reference compound], the “slope of progress curve with respect to the enzyme control” value [12] is reported as 30%, the “increase of Kii for nicotinamide over wild-type enzyme” value ([10]; I117F mutant versus wild-type) is reported as roughly 6 fold and the “decrease of Kii for nicotinamide over wild-type enzyme” value ([11]; I117V mutant versus wild-type) is reported as roughly 2.5 fold. It also gave a remaining activity at 100 µM [7] of 26 ± 1.4%.

For “(Pyrido[2,3-a]5-nitropyrrolo[3,4-c]carbazole-5,7(6H)-dione) (cyclopentadienyl)monocarbonyl ruthenium [Compound 16b]”, the IC50 ([13]; Table 4, Hst2) was 24 ± 16 µM, the “IC50 values (range in words)” value ([13]; Table 5) was “low micromolar” and the IC50 [13, 15] was 24 ± 16 µM. The inhibition of trypsin [14] was “did not inhibit trypsin”.

With “Pyrido[2,3-a]4-nitropyrrolo[3,4-c]carbazole-5,7(6H)-dione) (cyclopentadienyl) monocarbonyl ruthenium [Compound 16a]” the IC50 ([13]; Table 4, Hst2) was 36 ± 12 µM, the “IC50 values (range in words)” value ([13]; Table 5) was “low micromolar” and the IC50 [13, 15] was 36 ± 12 µM. For the same compound, the inhibition of trypsin [14] was “did not inhibit trypsin”.
